Test results reported in US6849442B1, “Biosensor materials and methods” (Cambridge University Technical Services Limited, priority 1997, dated 2005).

Key:
R. corallina cells = conditions: for induction of catechol 2,3-dioxygenase activity: R. corallina, meta pathway marker; for ring cleavage dioxygenase pathway induced (meta / ortho): crude enzyme extracts of cells grown on MMRN supplemented with the xenobiotic
Method: (§1) “MMRN” is prepared as a multicomponent stock to avoid the production of uncharacterised compounds during autoclaving. A “basic salts” stock is prepared containing 6 g/L Na2HPO4; 3 g/L KH2PO4; 1 g/L NaCl; 4 g/L (NH4)2SO4; adjusted to pH 7.4 and made up to 989 mls with distilled water and autoclaved. A “100×A salts” solution is prepared consisting of 20 g/L MgSO4; 2000 mg/L FeSO4.7H2O; 200 mg/L FeCl3; 200 mg/L MnSO4.H2O is prepared in distilled water and autoclaved. A “1000×B salts” solution consisting of 500 mg/L ZnSO4.7H2O; 200 mg/L CuCl2·2H2O; 200 mg/L Na2B4O7.10H2O; 100 mg/L (NH4)7Mo6O24.4H2O is prepared in distilled water and autoclaved. To prepare 1 litre of MMRN, sterile solutions of 989 mls basic salts, 10 mls 100×A salts, 1 ml 1000×B salts are combined. For solid media, agar is added to 1.4% w/v. Carbon-energy sources are supplemented to 80 μM final concentrations for soluble molecules, or as vapour for insoluble molecules (where their concentration is decided by their individual partition coefficients generally ranging from 3 to 40 μM). Petri plates or liquid cultures are incubated at 28° C. to 30° C. for up to 72 hours to accumulate sufficient biomass for genetic and biochemical testing.

R. corallina [1] = experiment: Genetic induction of the toluene degradative pathway, substrate supplied as vapour; format: cell-based, Rhodococcus corallina; conditions: level in water
Method: as §1

R. corallina [2] = experiment: Growth-inducing substrate test on MMRN; format: cell-based, Rhodococcus corallina
Text: Mycolic acid-containing bacteria may then be screened for specific hydrocarbon-inducible catabolic pathways using MMRN supplemented with the target xenobiotic pollutant. Strains for which the target molecule is growth inducing may then be isolated and used to as a source of genetic regulatory elements for biosensors or as specific biocatalytic functions. Using this protocol mycolic acid containing bacteria have been and may be rapidly identified with novel and useful catabolic properties. This approach is also useful for identification and isolation of mycolic acid containing bacteria with biocatalytic properties.

Row | Molecule | induction of catechol 2,3-dioxygenase activity (R. corallina cells) | ring cleavage dioxygenase pathway induced (meta / ortho) (R. corallina cells) | level at which genetic induction of the toluene degradative pathway occurs (R. corallina [1]) | acts as growth inducing substrate (R. corallina [2])
1 | O=C(O)c1ccccc1 [benzoate] | not | exclusively induces the ortho pathway |  | 
2 | Oc1ccccc1 [phenol] |  | exclusively induces the ortho pathway |  | 
3 | Cc1ccccc1 [toluene] | induced | induced the meta pathway | less than 200 ppm | 
4 | xylene |  |  |  | does not act as a growth inducing substrate
